Results published in US6046171A, “6,11-bridged erythromycin derivatives” (priority 1998, dated 2000).
Values after ≈ are worked out from the molar mass of the structure shown.

Legend:
Type in all cases: cell-based
[1] = system: Staphylococcus aureus ATCC 6538P; test: in vitro antibacterial MIC, agar dilution (BHI agar, Steers replicator); settings: organism code AA; 35-37° C., 20 to 24 hours; unit assumed
Description: (§1) Representative compounds of the present invention were assayed in vitro for antibacterial activity as follows: Twelve petri dishes containing successive aqueous dilutions of the test compound mixed with 10 mL of sterilized Brain Heart Infusion (BHI) agar (Difco 0418-01-5) were prepared. Each plate was inoculated with 1:100 (or 1:10 for slow-growing strains, such as Micrococcus and Streptococcus) dilutions of up to 32 different microorganisms, using a Steers replicator block. […] In addition, a control plate, using BHI agar containing no test compound, was prepared and incubated at the beginning and end of each test.
(§2) An additional plate containing a compound having known susceptibility patterns for the organisms being tested and belonging to the same antibiotic class as the test compound was also prepared and incubated as a further control, as well as to provide test-to-test comparability.
(§3) After incubation, each plate was visually inspected. The minimum inhibitory concentration (MIC) was defined as the lowest concentration of drug yielding no growth, a slight haze, or sparsely isolated colonies on the inoculum spot as compared to the growth control.

[2] = system: Candida albicans CCH 442; test: in vitro MIC, agar dilution; settings: organism code TT; 35-37° C., 20 to 24 hours; unit assumed
Description: as §1, §2, §3

[3] = system: Enterococcus faecium ATCC 8Q43; test: in vitro antibacterial MIC, agar dilution; settings: organism code II; 35-37° C., 20 to 24 hours; unit assumed
Description: as §1, §2, §3

[4] = system: Streptococcus bovis A-5169; test: in vitro antibacterial MIC, agar dilution; settings: organism code JJ; 35-37° C., 20 to 24 hours; unit assumed
Description: as §1, §2, §3

[5] = system: Escherichia coli SS; test: in vitro antibacterial MIC, agar dilution; settings: organism code RR; 35-37° C., 20 to 24 hours; unit assumed
Description: as §1, §2, §3

[6] = system: Staphylococcus aureus CMX 553; test: in vitro antibacterial MIC, agar dilution; settings: organism code FF; 35-37° C., 20 to 24 hours; unit assumed
Description: as §1, §2, §3

[7] = system: Streptococcus Pheumoniae ATCC6303; test: in vitro antibacterial MIC, agar dilution; settings: organism code XX; 35-37° C., 20 to 24 hours; unit assumed
Description: as §1, §2, §3

[8] = system: Staphylococcus epidermidis 3519; test: in vitro antibacterial MIC, agar dilution; settings: organism code HH; 35-37° C., 20 to 24 hours; unit assumed
Description: as §1, §2, §3

[9] = system: Streptococcus pyogenes 930; test: in vitro antibacterial MIC, agar dilution; settings: organism code MM; 35-37° C., 20 to 24 hours; unit assumed
Description: as §1, §2, §3

[10] = system: Escherichia coli DC-2; test: in vitro antibacterial MIC, agar dilution; settings: organism code SS; 35-37° C., 20 to 24 hours; unit assumed
Description: as §1, §2, §3

[11] = system: Staphylococcus aureus A-5278; test: in vitro antibacterial MIC, agar dilution; settings: organism code CC; 35-37° C., 20 to 24 hours; unit assumed
Description: as §1, §2, §3

[12] = system: Streptococcus pyogenes EES61; test: in vitro antibacterial MIC, agar dilution; settings: organism code LL; 35-37° C., 20 to 24 hours; unit assumed
Description: as §1, §2, §3

[13] = system: Staphylococcus aureus 1775; test: in vitro antibacterial MIC, agar dilution; settings: organism code GG; 35-37° C., 20 to 24 hours; unit assumed
Description: as §1, §2, §3

[14] = system: Staphylococcus aureus CMX 642A; test: in vitro antibacterial MIC, agar dilution; settings: organism code DD; 35-37° C., 20 to 24 hours; unit assumed
Description: as §1, §2, §3

[15] = system: Staphylococcus aureus NCTC10649M; test: in vitro antibacterial MIC, agar dilution; settings: organism code EE; 35-37° C., 20 to 24 hours; unit assumed
Description: as §1, §2, §3

[16] = system: Streptococcus Pheumoniae 5649; test: in vitro antibacterial MIC, agar dilution; settings: organism code ZZA; 35-37° C., 20 to 24 hours; unit assumed
Description: as §1, §2, §3

[17] = system: Haemophilis Influenzae DILL AMP R; test: in vitro antibacterial MIC, agar dilution; settings: organism code WW; 35-37° C., 20 to 24 hours; unit assumed
Description: as §1, §2, §3

[18] = system: Escherichia coli JUHL; test: in vitro antibacterial MIC, agar dilution; settings: organism code QQ; 35-37° C., 20 to 24 hours; unit assumed
Description: as §1, §2, §3

[19] = system: Staphylococcus aureus A5177; test: in vitro antibacterial MIC, agar dilution; settings: organism code BB; 35-37° C., 20 to 24 hours; unit assumed
Description: as §1, §2, §3

[20] = system: Streptococcus pyogenes PIU 2548; test: in vitro antibacterial MIC, agar dilution; settings: organism code NN; 35-37° C., 20 to 24 hours; unit assumed
Description: as §1, §2, §3

[21] = system: Mycobacterium smegmatis ATCC 114; test: in vitro antibacterial MIC, agar dilution; settings: organism code UU; 35-37° C., 20 to 24 hours; unit assumed
Description: as §1, §2, §3

[22] = system: Nocardia Asteroides ATCC9970; test: in vitro antibacterial MIC, agar dilution; settings: organism code VV; 35-37° C., 20 to 24 hours; unit assumed
Description: as §1, §2, §3

[23] = system: Micrococcus luteus ATCC 4698; test: in vitro antibacterial MIC, agar dilution; settings: organism code PP; 35-37° C., 20 to 24 hours; unit assumed
Description: as §1, §2, §3

[24] = system: Streptococcus Pheumoniae GYR 1171; test: in vitro antibacterial MIC, agar dilution; settings: organism code YY; 35-37° C., 20 to 24 hours; unit assumed
Description: as §1, §2, §3

[25] = system: Streptococcus Pheumoniae 5979; test: in vitro antibacterial MIC, agar dilution; settings: organism code ZZ; 35-37° C., 20 to 24 hours; unit assumed
Description: as §1, §2, §3

[26] = system: Micrococcus luteus ATCC 9341; test: in vitro antibacterial MIC, agar dilution; settings: organism code OO; 35-37° C., 20 to 24 hours; unit assumed
Description: as §1, §2, §3

[27] = system: Streptococcus agalactiae CMX 508; test: in vitro antibacterial MIC, agar dilution; settings: organism code KK; 35-37° C., 20 to 24 hours; unit assumed
Description: as §1, §2, §3

SMILES	MIC [1]	MIC [2]	MIC [3]	MIC [4]	MIC [5]	MIC [6]	MIC [7]	MIC [8]	MIC [9]	MIC [10]	MIC [11]	MIC [12]	MIC [13]	MIC [14]	MIC [15]	MIC [16]	MIC [17]	MIC [18]	MIC [19]	MIC [20]	also measured
CC[C@H]1OC(=O)[C@H](C)[C@@H](O[C@H]2C[C@@](C)(OC)[C@@H](O)[C@H](C)O2)[C@H](C)[C@@H](O[C@@H]2O[C@H](C)C[C@H](N(C)C)[C@H]2O)[C@@]2(C)C[C@@H](C)C(=O)[C@H](C)[C@H]3N(CC(O)CCCCO2)C(=O)O[C@]13C (stereo partly drawn) [Example 22]	1.56 µg/mL (≈ 1.82 µM)	> 100 µg/mL	0.2 µg/mL (≈ 0.233 µM)	0.05 µg/mL (≈ 0.0583 µM)	0.78 µg/mL (≈ 0.91 µM)	1.56 µg/mL (≈ 1.82 µM)	0.06 µg/mL (≈ 0.07 µM)	1.56 µg/mL (≈ 1.82 µM)	> 100 µg/mL	> 100 µg/mL	> 100 µg/mL	0.1 µg/mL (≈ 0.117 µM)	> 100 µg/mL	1.56 µg/mL (≈ 1.82 µM)	1.56 µg/mL (≈ 1.82 µM)	16 µg/mL (≈ 18.7 µM)	4 µg/mL (≈ 4.67 µM)	100 µg/mL (≈ 117 µM)	12.5 µg/mL (≈ 14.6 µM)	12.5 µg/mL (≈ 14.6 µM)	MIC [21]: 0.78 µg/mL (≈ 0.91 µM); MIC [22]: 0.1 µg/mL (≈ 0.117 µM); MIC [23]: 0.39 µg/mL (≈ 0.455 µM); MIC [24]: 0.06 µg/mL (≈ 0.07 µM); MIC [25]: > 128 µg/mL; MIC [26]: 0.1 µg/mL (≈ 0.117 µM); MIC [27]: 0.1 µg/mL (≈ 0.117 µM)
CC[C@H]1OC(=O)[C@H](C)[C@@H](O[C@H]2C[C@@](C)(OC)[C@@H](O)[C@H](C)O2)[C@H](C)[C@@H](O[C@@H]2O[C@H](C)C[C@H](N(C)C)[C@H]2O)[C@@]2(C)C[C@@H](C)C(=O)[C@H](C)[C@H]3N(CCNC(=O)c4ccccc4CC=CCO2)C(=O)O[C@]13C [Example 24]	0.78 µg/mL (≈ 0.814 µM)	> 100 µg/mL	0.2 µg/mL (≈ 0.209 µM)	0.1 µg/mL (≈ 0.104 µM)	6.2 µg/mL (≈ 6.47 µM)	0.78 µg/mL (≈ 0.814 µM)	0.03 µg/mL (≈ 0.0313 µM)	1.56 µg/mL (≈ 1.63 µM)	> 100 µg/mL	> 100 µg/mL	> 100 µg/mL	0.1 µg/mL (≈ 0.104 µM)	> 100 µg/mL	1.56 µg/mL (≈ 1.63 µM)	1.56 µg/mL (≈ 1.63 µM)	16 µg/mL (≈ 16.7 µM)	16 µg/mL (≈ 16.7 µM)	100 µg/mL (≈ 104 µM)	25 µg/mL (≈ 26.1 µM)	12.5 µg/mL (≈ 13 µM)	MIC [21]: 0.39 µg/mL (≈ 0.407 µM); MIC [22]: 0.1 µg/mL (≈ 0.104 µM); MIC [23]: 1.56 µg/mL (≈ 1.63 µM); MIC [24]: 0.03 µg/mL (≈ 0.0313 µM); MIC [25]: 128 µg/mL (≈ 134 µM); MIC [26]: 0.1 µg/mL (≈ 0.104 µM); MIC [27]: 0.1 µg/mL (≈ 0.104 µM)
